{"source": "patent US20240116986A1", "about": "“FUSION PEPTIDES CONTAINING DIMERIC ALPHA-HELICES, PEPTIDE-MOLECULARCONJUGATES CONTAINING THE SAME AND NUCLEIC ACID DELIVERY COMPOSITIONSCONTAINING THE SAME” (Artprobio Co., Ltd., priority 2022, published 2024)", "key": {"ssDNA PolyT40": {"tested_on": "ssDNA PolyT40", "assay": "EMSA with ssDNA PolyT40", "format": "binding"}, "ssDNA PolyT200": {"tested_on": "ssDNA PolyT200", "assay": "EMSA with ssDNA PolyT200", "format": "binding", "method": "The peptide-molecule conjugates of Examples 16, 17 and 18 (Glc2-AA-U2, Glc2-AA-U4, Glc2-AA-U6) were dispersed in distilled water. […] After preparing the mixtures of the peptide-molecule conjugates of Examples 16, 17 and 18 (Glc2-AA-U2, Glc2-AA-U4, Glc2-AA-U6) and the ssDNA PolyT200 (5 μL) at the nucleobase ratios described above, they were analyzed by EMSA.\nThe aqueous solution of the peptide-molecule conjugate of Example 19 (Glc2-AA-U8) was sonicated for 5 minutes or heated at 90° C. for 5 minutes, respectively. The heated peptide-molecule conjugate was indicated by ‘heat’.\nThe mixtures prepared by mixing the peptide-molecule conjugate of Example 19 (Glc2-AA-U8) aqueous solution (sonicated or heated) and ssDNA PolyT200 (5 μL) at nucleobase ratios of 20, 30 or 40 were analyzed by EMSA."}, "EGFP mRNA": {"tested_on": "EGFP mRNA", "assay": "EMSA of nanostructure formation with EGFP mRNA", "format": "binding", "method": "When a nanostructure was formed through self-assembly by reacting a peptide-molecule conjugate (SAB) with a nucleic acid material (dsDNA or mRNA), agarose gel EMSA was conducted to measure their interactions, binding ratio, stability, etc.\nFirst, the nucleic acid material of a fixed concentration (100 fmol mRNA) was reacted with the peptide-molecule conjugate (SAB) of various concentrations. Immediately before mixing with the nucleic acid material, the peptide-molecule conjugate (SAB) was sonicated for 5 minutes to prevent self-aggregation. The sonicated peptide-molecule conjugate (SAB, 5 μL) was added to the nucleic acid material ([…]) and a nanostructure was prepared by adding distilled water. The sample was prepared by snap cooling. Specifically, after heating at 70° C. for 10 minutes and snap-cooling on ice, the prepared sample was stored at room temperature. The stored sample was mixed with 2 μL of 60% glycerol. Electrophoresis was performed at 100 V for 60 minutes on 0.8% agarose gel using 1×TBE. The band was observed after staining with SYBR™ Gold nucleic acid gel stain (Invitrogen, Waltham, USA).\nAfter sonicating the peptide-molecule conjugate (SAB-gn, n=1 to 6) aqueous solution for 5 minutes, it was immediately mixed with an EGFP mRNA (200 μL) solution. […] An […] nanostructure was prepared as follows by mixing the peptide-molecule conjugate (SAB-gn, n=1 to 6) with the EGFP mRNA. […] The EGFP mRNA and the peptide-molecule conjugate (SAB-gn, n=1 to 6) were mixed at a charge ratio (+/−) of 0, 0.008, 0.016, 0.031, 0.063, 0.125, 0.25, 0.5, 1, 2, 4, 8, 16, 32 or 50.\nAfter incubating the mixture solution overnight and centrifuging at 16,100 g for 30 minutes, the mixture was resuspended in deionized water. After washing twice, the resulting nanostructure was analyzed by EMSA.\nAfter incubating the mixture solution overnight and centrifuging at 16,100 g for 30 minutes, the mixture was resuspended in deionized water.\nAfter heating the mixed solution for 10 minutes at 70° C., it was immediately snap-cooled on ice. RiboRuler Low Range RNA Ladder and RiboRuler High Range RNA Ladder (Thermo Scientific, Waltham, USA) were used on the two lanes on the left side of agarose gel in order to identify the relative locations of the EGFP mRNA bands. The bands of the RiboRuler Low Range RNA Ladder correspond to 1000, 800, 600, 400, 300, 200 and 100 bases, from top to bottom, and the bands of the RiboRuler High Range RNA Ladder correspond to 6000, 4000, 3000, 2000, 1500, 1000, 500 and 200 bases, from top to bottom. Then, the mixtures with charge ratios (+/−) of 0, 0.031, 0.063, 0.125, 0.25, 0.5, 1, 2, 4, 8 and 16 were loaded in sequence.\nAfter heating the mixed solution for 10 minutes at 70° C., it was immediately snap-cooled on ice. RiboRuler High Range RNA Ladder (Thermo Scientific, Waltham, USA) was used on the left side of agarose gel in order to identify the relative locations of the EGFP mRNA bands. The bands of the RiboRuler High Range RNA Ladder correspond to 6000, 4000, 3000, 2000, 1500, 1000, 500 and 200 bases, from top to bottom. Then, the samples were loaded with charge ratios (+/−) of 00, 0.063, 0.125, 0.25, 0.5, 1, 2, 4, 8, 16 and 32 in sequence."}, "[1]": {"settings": "different nucleobase ratios (20-100)"}, "[2]": {"settings": "20 nM EGFP mRNA, 70° C. 10 minutes, snap-cooled"}}, "note": "Where two headings read alike, the source gives them in different places.", "data": [{"substance": "Ac-(PEG8)-AELAALEAELAALE(Ahx)2-E (adenine)E (adenine)-(Ahx)2-KLAALKAKLAALKAG-(PEG8) [PEG82-AA-U0]", "values": [{"measurement": "electrophoretic mobility (EMSA)", "setting": "ssDNA PolyT40; nucleobase ratio 1280:1, compared with Example 12", "value": "delayed relatively more"}]}, {"substance": "Ac-(PEG8)-AELAALEAELAALE-(Ahx)2-E (adenine)-(Ahx)2-KLAALKAKLAALKAG-(PEG8) [PEG82-A-U0]", "values": [{"measurement": "electrophoretic mobility (EMSA)", "setting": "ssDNA PolyT40; nucleobase ratio 640", "value": "delayed slightly"}]}, {"substance": "Ac-R-GS-UELUALEUELAULE-(Ahx)2-E (adenine)E (adenine)-(Ahx)2-KLUALKUKLAULKUG-K (glucose) [R-AA-Glc-U8]", "values": [{"measurement": "nanostructure formation (EMSA)", "setting": "ssDNA PolyT200; nucleobase ratio 60", "value": "successfully form"}]}, {"substance": "Ac-R-GS-UELUALEUELAULE-(Ahx)2-E (thymine)E (thymine)-(Ahx)2-KLUALKUKLAULKUG-K (glucose) [R-TT-Glc-U8]", "values": [{"measurement": "nanostructure formation (EMSA)", "setting": "ssDNA PolyT200; nucleobase ratio 60", "value": "successfully form"}]}, {"substance": "Ac-R-GS-UELUALEUELAULE-(Ahx)2-E (thymine)E (thymine)-(Ahx)2-KLUALKUKLAULKUG-K(PEG8)2 [R-TT-PEG82-U8]", "values": [{"measurement": "nanostructure formation (EMSA)", "setting": "ssDNA PolyT200; [1]", "value": "successfully form"}]}, {"substance": "Ac-R-GS-UELUALEUELAULE-(Ahx)2-E (thymine)E (thymine)-(Ahx)2-KLUALKUKLAULKUG-K(PEG8) [R-AA-PEG8-U8]", "values": [{"measurement": "nanostructure formation (EMSA)", "setting": "ssDNA PolyT200; [1]", "value": "successfully form"}]}, {"substance": "Ac-S-GS-UELUALEUELAULE-(Ahx)2-E (thymine)E (thymine)-(Ahx)2-KLUALKUKLAULKUG-K(PEG8) [S-TT-PEG8-U8]", "values": [{"measurement": "nanostructure formation (EMSA)", "setting": "ssDNA PolyT200; [1]", "value": "successfully form"}]}, {"substance": "Glucose-(PEG8)-AELAALEAELAALE-(Ahx)2-K-(Ahx)2-KLAALKAKLAALKAG-(PEG8)-K(^Nglucose)-NH2 [SAB-g2]", "values": [{"measurement": "+/− (optimum charge ratio of EGFP mRNA and conjugate showing completely delayed electrophoretic mobility)", "setting": "EGFP mRNA", "value": ">30"}]}, {"substance": "Glucose-(PEG8)-AELAALEAELAALE-(Ahx)2-K-(Ahx)2-KLAALKAKLAALKAG-(PEG8)-NH2 [SAB-g1]", "values": [{"measurement": "+/− (optimum charge ratio of EGFP mRNA and conjugate showing completely delayed electrophoretic mobility)", "setting": "EGFP mRNA", "value": 20}]}, {"substance": "Glucose-GS-AELAALEAELAALE-(Ahx)2-E (adenine)-E (adenine)-(Ahx)2-KLAALKAKLAALKAG-GS [Glc1-AA-U0]", "values": [{"measurement": "electrophoretic mobility (EMSA)", "setting": "ssDNA PolyT100; nucleobase ratio 40:1, compared with Example 15", "value": "delayed relatively more"}, {"measurement": "electrophoretic mobility (EMSA)", "setting": "ssDNA PolyT100; nucleobase ratio 80:1", "value": "delayed completely"}]}, {"substance": "Glucose-GS-AELAALEAELAALE-(Ahx)2-E (thymine)-E (thymine)-(Ahx)2-KLAALKAKLAALKAG-GS [Glc1-TT-U0]", "values": [{"measurement": "electrophoretic mobility (EMSA)", "setting": "ssDNA PolyT100; nucleobase ratio 80:1", "value": "no electrophoretic mobility was observed"}]}, {"substance": "Glucose-GS-AELAALEAELAALE-(Ahx)2-K-(Ahx)2-KLAALKAKLAALKAG-K(^Nglucose)-NH2 [SAB-g3]", "values": [{"measurement": "+/− (optimum charge ratio of EGFP mRNA and conjugate showing completely delayed electrophoretic mobility)", "setting": "EGFP mRNA", "value": 0.25}, {"measurement": "Hill coefficient", "setting": "EGFP mRNA", "value": 4.6}, {"measurement": "half-saturation constant KSAB-g3", "setting": "EGFP mRNA", "value": 0.152}]}, {"substance": "Glucose-GS-AELAALEUELAALE-(Ahx)2-E (adenine)E (adenine)-(Ahx)2-KLAALKUKLAALKAG-K (glucose) [Glc2-AA-U2]", "values": [{"measurement": "nanostructure formation (EMSA)", "setting": "ssDNA PolyT200; [1]", "value": "formed successfully"}]}, {"substance": "Glucose-GS-AELAALEUELAALE-(Ahx)2-K-(Ahx)2-KLAALKUKLAALKAG-K(^Nglucose)-NH2 [SAB-g4]", "values": [{"measurement": "+/− (optimum charge ratio of EGFP mRNA and conjugate showing completely delayed electrophoretic mobility)", "setting": "EGFP mRNA", "value": 5}]}, {"substance": "Glucose-GS-AELUALEAELAULE-(Ahx)2-E (adenine)E (adenine)-(Ahx)2-KLUALKAKLAULKAG-K (glucose) [Glc2-AA-U4]", "values": [{"measurement": "nanostructure formation (EMSA)", "setting": "ssDNA PolyT200; [1]", "value": "formed successfully"}]}, {"substance": "Glucose-GS-AELUALEAELAULE-(Ahx)2-K-(Ahx)2-KLUALKAKLAULKAG-K(^Nglucose)-NH2 [SAB-g5]", "values": [{"measurement": "+/− (optimum charge ratio of EGFP mRNA and conjugate showing completely delayed electrophoretic mobility)", "setting": "EGFP mRNA", "value": 10}]}, {"substance": "Glucose-GS-AELUALEUELAULE-(Ahx)2-E (adenine)E (adenine)-(Ahx)2-KLUALKUKLAULKAG-K (glucose) [Glc2-AA-U6]", "values": [{"measurement": "nanostructure formation (EMSA)", "setting": "ssDNA PolyT200; [1]", "value": "formed successfully"}]}, {"substance": "Glucose-GS-AELUALEUELAULE-(Ahx)2-K-(Ahx)2-KLUALKUKLAULKAG-K(^Nglucose)-NH2 [SAB-g6]", "values": [{"measurement": "+/− (optimum charge ratio of EGFP mRNA and conjugate showing completely delayed electrophoretic mobility)", "setting": "EGFP mRNA", "value": ">4"}]}, {"substance": "Glucose-GS-UELUALEUELAULE-(Ahx)2-E (adenine)E (adenine)-(Ahx)2-KLUALKUKLAULKUG-K (glucose) [Glc2-AA-U8]", "values": [{"measurement": "nanostructure formation with EGFP mRNA (EMSA)", "setting": "EGFP mRNA; four conjugates used together (AA 6%, CC 21%, GG 26%, TT 47%), nucleobase ratio 1:1-1:15", "value": "successfully forms the nanostructure"}, {"measurement": "nanostructure formation (EMSA) after sonication or heating of conjugate", "setting": "ssDNA PolyT200; nucleobase ratios 20, 30 or 40, sonicated 5 minutes or heated at 90° C. 5 minutes", "value": "successfully binding to ssDNA PolyT200"}]}, {"substance": "Glucose-GS-UELUALEUELAULE-(Ahx)2-E (cytosine)E (cytosine)-(Ahx)2-KLUALKUKLAULKUG-K (glucose) [Glc2-CC-U8]", "values": [{"measurement": "nanostructure formation with EGFP mRNA (EMSA)", "setting": "EGFP mRNA", "value": "successfully forms the nanostructure"}]}, {"substance": "Glucose-GS-UELUALEUELAULE-(Ahx)2-E (guanine)E (guanine)-(Ahx)2-KLUALKUKLAULKUG-K (glucose) [Glc2-GG-U8]", "values": [{"measurement": "nanostructure formation with EGFP mRNA (EMSA)", "setting": "EGFP mRNA", "value": "successfully forms the nanostructure"}]}, {"substance": "Glucose-GS-UELUALEUELAULE-(Ahx)2-E (thymine)E (thymine)-(Ahx)2-KLUALKUKLAULKUG-K (glucose) [Glc2-TT-U8]", "values": [{"measurement": "nanostructure formation with EGFP mRNA (EMSA)", "setting": "EGFP mRNA", "value": "successfully forms the nanostructure"}]}, {"substance": "Glucose-SGSG-C-GG-AUAUAUAUAUA-GG-R-GG-AUAUAUAUAUA-GG-C (cyclic; disulfide) [SAB #31]", "values": [{"measurement": "EMSA bands of EGFP mRNA", "setting": "EGFP mRNA", "value": "bands of the EGFP mRNA weaken gradually with the increase of charge ratio"}]}, {"substance": "Glucose-SGSG-C-GG-AUAUAUAUAUA-GG-R-GG-AUAUAUAUAUA-GG-C (linear) [#30]", "values": [{"measurement": "charge ratio (+/−) at which a complete nanostructure was formed", "setting": "EGFP mRNA", "value": "≥ 8"}]}, {"substance": "Glycolic acid-SGSG-C-GG-AUAUAUAUAUA-GG-R-GG-AUAUAUAUAUA-GG-C (cyclic; disulfide) [cyc-R(AU)A5-Ga]", "values": [{"measurement": "charge ratio (+/−) at which a complete nanostructure was formed", "setting": "EGFP mRNA; [2]", "value": 16}]}, {"substance": "Glycolic acid-SGSG-C-GG-AUAUAUAUAUA-GG-R-GG-AUAUAUAUAUA-GG-C (linear) [lin-R(AU)A5-Ga]", "values": [{"measurement": "charge ratio (+/−) at which a complete nanostructure was formed", "setting": "EGFP mRNA; [2]", "value": "≥ 1.0"}]}]}
